# Measurements reported in PMC5024298, “The coiled-coil domain of zebrafish TRPM7 regulates Mg·nucleotide sensitivity” (Scientific Reports, 2016).
# Where “and” joins values, the source holds several entries; their conditions need not be identical. Equal entries are not always repeated. Where two headings read alike, the source gives them in different places.
# Columns and labels:
# [1] = system: zebrafish TRPM7 (drTRPM7) wild type; assay: Whole-cell patch-clamp of tetracycline-induced HEK293 T-REx cells overexpressing wild type drTRPM7; format: cell-based, zebrafish (Danio rerio); conditions: for Biophysical characteristic: effect on drTRPM7 (Table 1): heterologous drTRPM7; for effect of extracellular divalent application on monovalent outward currents: 10 mM divalent replacing 10 mM Ca^2+, NMDG external solution; for IC50: 200 s
# Protocol: (§1) HEK293 T-REx cells stably expressing HA-tagged Danio rerio TRPM7 (drTRPM7) wild type or mutants were cultured in DMEM with 10% FBS and 5 μg/ml of blasticidin and 200 μg/ml hygromycin. HEK293 T-REx cells were incubated at 37 °C and 5% CO2. Expression was induced by adding 1 μg/ml tetracycline to the growth media 20 hours before experiments. […] Chicken DT40 wild type and DT40 cells with a TRPM7 […] (DT40 TRPM7-KO) cells were maintained as described before.
# (§2) Patch-clamp experiments were performed in the tight-seal whole-cell configuration at room temperature (20–25 °C). Whole-cell currents were recorded with the EPC9 (HEKA, Bellmore, NY) and Patchmaster v2.4 (HEKA). Voltages were corrected for a liquid junction potential of 10 mV. The patch pipettes were pulled from borosilicate glass (Sutter Instruments, USA) with resistances of 2.5–3.5 MΩ when filled with internal solution. The voltage ramp protocol ranged from −100 mV to 100 mV over 50 ms and applied at 0.5 Hz. Current amplitudes were measured at −80 mV and +80 mV. The holding potential was set to 0 mV in all experiments. Currents were filtered at 2.9 kHz and digitized at 10 kHz. Cells were seeded on glass cover slips 1–2 days before the day of the experiment. Cover slips were submerged in the external solution at room temperature (20–25 °C). Cover slips and external solutions were replaced every hour.
# The standard external solution contained (in mM): 140 NaCl, 2.8 KCl, 2 MgCl2, 11 glucose, 10 HEPES, and 1 CaCl2. The divalent profile experiments were performed using a modified external solution that contained (in mM): 140 N-methyl-D-glucamine (NMDG), 11 glucose, 10 HEPES and 10 CaCl2. For application, 10 mM CaCl2 was replaced with 10 mM of the respective divalent under study. The standard internal solution contained (in mM): 140 Cs-glutamate, 8 NaCl, 10 HEPES, and 10 Cs-BAPTA. pH was adjusted to 7.2 and osmolarity was kept between 290–330 mOsm. The solutions for pH below 6.0 contained (in mM): 140 NaCl, 2.8 KCl, 2 MgCl2, 11 glucose, 10 MES, and 1 CaCl2. For the Mg·ATP dose-response analysis, the internal solution contained (in mM): 120 Cs-glutamate, 8 NaCl, 10 HEPES, 10 Cs-BAPTA. Na·ATP and MgCl2 was used to achieve appropriate concentrations of free intracellular Mg^2+ and Mg·ATP as calculated using WebmaxC Standard (http://www.stanford.edu/~cpatton/webmaxcS.htm).
# Statistical analysis was performed using Fitmaster (version 2.69; HEKA, Germany) and Igor software (version 6.34; WaveMetrics, USA). The p-values were calculated using Microsoft Excel version 14.1.2 using the two-tailed paired Student’s T-test. Data were normalized to cell size and expressed as current density (pA/pF), or normalized to the time point right before application (I/I[time]s). […] Dose-response fits were assessed using the fit function f(x) = ([Maximum current] *(1/(1 + ([Estimated IC50]/x)^[Hill coefficient])). The IC50 or EC50 values calculated with the dose-response curve function were reported with ± standard deviation (S.D.).
# To study channel biophysics, HA-tagged wild type zebrafish TRPM7 (drTRPM7) was cloned and stably expressed in HEK293 T-REx cells under tetracycline-inducible promotor (see methods; ref. [3]). […] Both clones were also tested for drTRPM7 expression using the whole-cell patch-clamp technique.
# [2] = system: endogenous TRPM7-like currents in ZFL cells; assay: Whole-cell patch-clamp of endogenous TRPM7-like currents in zebrafish liver cell line ZFL; format: cell-based
# Protocol: as §1, §2
# Mammalian TRPM7 = conditions: cited from earlier work
# Human TRPM6 = conditions: cited from earlier work
# human TRPM7 (hTRPM7) = conditions: cited from earlier work
# drTRPM7-1478 = assay: Whole-cell patch-clamp of HEK293 T-REx cells overexpressing truncation mutant drTRPM7-1478; format: cell-based, zebrafish (Danio rerio); conditions: +80 mV, 200 s; Hill = 2, 1.5 (Fig. 6 legend); read-out: IC50 of internal Mg^2+
# Protocol: Patch-clamp experiments were performed in the tight-seal whole-cell configuration at room temperature (20–25 °C). Whole-cell currents were recorded with the EPC9 (HEKA, Bellmore, NY) and Patchmaster v2.4 (HEKA). Voltages were corrected for a liquid junction potential of 10 mV. […] Current amplitudes were measured at −80 mV and +80 mV. […]
# (§3) The standard external solution contained (in mM): 140 NaCl, 2.8 KCl, 2 MgCl2, 11 glucose, 10 HEPES, and 1 CaCl2. […] Na·ATP and MgCl2 was used to achieve appropriate concentrations of free intracellular Mg^2+ and Mg·ATP as calculated using WebmaxC Standard (http://www.stanford.edu/~cpatton/webmaxcS.htm).
# drTRPM7-1258 = assay: Whole-cell patch-clamp of HEK293 T-REx cells overexpressing truncation mutant drTRPM7-1258; format: cell-based, zebrafish (Danio rerio)
# Protocol: (§4) Patch-clamp experiments were performed in the tight-seal whole-cell configuration at room temperature (20–25 °C). Whole-cell currents were recorded with the EPC9 (HEKA, Bellmore, NY) and Patchmaster v2.4 (HEKA). Voltages were corrected for a liquid junction potential of 10 mV. The patch pipettes were pulled from borosilicate glass (Sutter Instruments, USA) with resistances of 2.5–3.5 MΩ when filled with internal solution. The voltage ramp protocol ranged from −100 mV to 100 mV over 50 ms and applied at 0.5 Hz. Current amplitudes were measured at −80 mV and +80 mV. The holding potential was set to 0 mV in all experiments. Currents were filtered at 2.9 kHz and digitized at 10 kHz. Cells were seeded on glass cover slips 1–2 days before the day of the experiment. […]
# as §3
# drTRPM7-1178 = assay: Whole-cell patch-clamp of HEK293 T-REx cells overexpressing truncation mutant drTRPM7-1178; format: cell-based, zebrafish (Danio rerio)
# Protocol: as §4, §3
# [3] = 1 mM intracellular Mg·ATP, 250 μM free Mg^2+
compound,measurement,setting,value
"NCCOB(c1ccccc1)c1ccccc1 [2-APB, 2-aminoethyl diphenylborinate, reference compound]",effect of 2-APB on drTRPM7 currents,[1]; concentrations of 300 μM and above,greatly enhanced
same,Biophysical characteristic: effect on drTRPM7 (Table 1),[1],Potentiation
same,effect of 2-APB on drTRPM7 currents,[1]; lower concentrations (30 μM and 100 μM),small but statistically not significant inhibitory effect
same,effect of 2-APB on drTRPM7 currents,"[1]; various concentrations, up to 500 μM, external application",facilitated rather than inhibited
same,facilitation of inward and outward drTRPM7-like currents,[2]; 500 μM 2-APB applied at 400 s,50%
same,effect of 2-APB on mammalian TRPM7,Mammalian TRPM7; Table 1,Inhibition[12]
same,effect of 2-APB on human TRPM6,Human TRPM6; Table 1,Potentiation[12]
same,effect on human TRPM6 currents,Human TRPM6,enhances
same,effect of 2-APB on hTRPM7 currents,human TRPM7 (hTRPM7),inhibits
"[Mg+2] [Mg^2+, magnesium]",effect of extracellular divalent application on monovalent outward currents,[1]; +80 mV,almost completely suppressed
same,IC50,"[1]; current at +80 mV, Hill coefficient 1, read-out: IC50 of intracellular free Mg^2+ on drTRPM7 currents",778 µM
same,IC50,drTRPM7-1478,450 ± 0.55 µM
same,IC50,"drTRPM7-1258; +80 mV, 200 s, Hill = 2, read-out: IC50 of internal Mg^2+",250 ± 0.52 µM
same,IC50,"drTRPM7-1178; +80 mV, 200 s, Hill = 3, read-out: IC50 of internal Mg^2+",840 ± 158 µM
same,effect of intracellular free Mg^2+ on drTRPM7-like current development,[2]; 3.2 mM free Mg^2+ in pipette solution,completely suppressed
same,IC50,"Mammalian TRPM7; Table 1, read-out: IC50 of Mg^2+ on mammalian TRPM7",720 µM
same,IC50,Mammalian TRPM7; read-out: IC50 of intracellular Mg^2+ on heterologous and/or native mouse and human TRPM7,~750 µM
same,IC50,"Human TRPM6; Table 1, read-out: IC50 of Mg^2+ on human TRPM6",29 µM
"Nc1ncnc2c1ncn2[C@@H]1O[C@H](COP(=O)(O)OP(=O)([O-])OP(=O)([O-])O)[C@@H](O)[C@H]1O.[Mg+2] [Mg·ATP, Mg·adenosine triphosphate]",IC50,"[1]; internal free Mg^2+ 250 μM, +80 mV, Hill coefficient 1, read-out: IC50 of intracellular Mg·ATP on drTRPM7 currents",1160 µM and 1200 µM
same,IC50,"[1]; internal free Mg^2+ 250 μM, +80 mV, Hill coefficient set to 1, read-out: IC50 of intracellular Mg·ATP on drTRPM7 currents (Fig. 1E legend)",1160 ± 700 µM
same,effect of Mg·ATP on drTRPM7-1258 currents,drTRPM7-1258; [3],fully inhibited
same,sensitivity to intracellular Mg·ATP of drTRPM7-1258 compared to drTRPM7-1478 and wild type,drTRPM7-1258; ratio of IC50 values,about 4 fold
same,effect of Mg·ATP on drTRPM7-1178 currents,drTRPM7-1178; [3],did not seem to have any effect
same,sensitivity of drTRPM7-1178 currents to intracellular Mg·ATP,"drTRPM7-1178; up to 6 mM Mg·ATP, 250 μM free Mg^2+",completely lost any sensitivity
same,IC50,"Mammalian TRPM7; Table 1, read-out: IC50 of Mg·ATP on mammalian TRPM7",2000 µM
same,effect on human TRPM6 currents,Human TRPM6,No effect[14]
"C=C1CC/C=C(\C)CC[C@@H]2C([C@H](C/C=C(\C)COC(C)=O)OC(C)=O)=CO[C@H](OC(C)=O)[C@@H]12 [Waixenicin A, reference compound]",effect of waixenicin A on drTRPM7 currents,"[1]; 10 μM waixenicin A, 410 μM internal free Mg / 780 μM free Mg^2+ (Fig. 4 legend)",no effect
same,Biophysical characteristic: effect on drTRPM7 (Table 1),[1],No effect
same,effect of waixenicin A on mammalian TRPM7,Mammalian TRPM7; Table 1,Inhibition[13]
same,effect on human TRPM6 currents,Human TRPM6,No effect[14]
same,effect on human TRPM6 currents,Human TRPM6; listed as waixenicin A,no significant effect
[Ba+2] [barium],effect of extracellular divalent application on monovalent outward currents,[1]; +80 mV,facilitated outward currents
[Cd] [cadmium],effect of extracellular divalent application on monovalent outward currents,[1]; +80 mV,facilitated outward currents
[Co+2] [cobalt],effect of extracellular divalent application on monovalent outward currents,[1]; +80 mV,almost completely suppressed
[Ni+2] [nickel],effect of extracellular divalent application on monovalent outward currents,[1]; +80 mV,almost completely suppressed
[Sr+2] [strontium],effect of extracellular divalent application on monovalent outward currents,[1]; +80 mV,facilitated outward currents
